Data taken from patent publication US20250281649A1, “PROBE DIRECTED TO ENZYME ALDH1A3 AND USE THEREOF IN THE DIAGNOSIS OF GLIOBLASTOMA” (Universita' Degli Studi Del Piemonte Orientale "A. Avogadro", priority 2021, published 2025).
pKd: −log10 of the molar value.

Tests used:
Assay in all cases: KD evaluation by probe fluorescence (Tecan SPARK)
Assay type in all cases: binding
ALDH1A1 = molecular target: T1, ALDH1A1 (Homo sapiens, UniProt P00352); details: probe fixed at 10 μM, isoenzyme 100 μM to 1 μM
T1 construct: His-tag; made in house; host or cells: bacterial cells
T1 sequence (P00352 1-501): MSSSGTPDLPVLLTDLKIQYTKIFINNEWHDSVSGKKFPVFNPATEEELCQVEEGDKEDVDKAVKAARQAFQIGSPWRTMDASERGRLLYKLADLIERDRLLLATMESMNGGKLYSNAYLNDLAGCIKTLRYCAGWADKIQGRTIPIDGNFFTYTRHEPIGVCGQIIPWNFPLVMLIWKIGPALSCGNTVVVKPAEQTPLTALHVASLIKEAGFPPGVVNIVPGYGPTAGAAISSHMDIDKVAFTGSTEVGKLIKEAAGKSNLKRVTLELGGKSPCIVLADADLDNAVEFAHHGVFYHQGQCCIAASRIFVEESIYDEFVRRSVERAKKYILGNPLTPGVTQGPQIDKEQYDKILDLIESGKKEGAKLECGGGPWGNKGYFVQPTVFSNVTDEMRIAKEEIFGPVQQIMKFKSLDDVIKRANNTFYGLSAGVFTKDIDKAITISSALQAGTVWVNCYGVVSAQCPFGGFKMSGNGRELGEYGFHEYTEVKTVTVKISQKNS
Description: (§1) A common protocol to express and purify all three members of the ALDHIA subfamily has been optimized. Briefly, induced cells, collected by centrifugation, were re-suspended in an appropriate volume of lysis buffer (50 mM Na2HPO4, 300 mM NaCl, 1 mM β-mercaptoethanol, 20 mM imidazole, pH 7.5) added of benzonase nuclease (250 U/μL) and Protease inhibitor cocktail from SIGMA. After ultracentrifugation, the clarified sample was purified by a His-tag affinity chromatography followed by size-exclusion chromatography, using an AKTA FPLC system, at 4° C. To evaluate the purity and homogeneity of the protein, after each purification step, eluted d fractions were analyzed by SDS-PAGE and the protein quantification was always determined by Bradford protein assay.
(§2) KD evaluation: on a Tecan—SPARK, probe 14 and 13 were tested at a fixed concentration of 10 μM. All the isoenzymes were tested in wide range of concentrations (from 100 μM to 1 μM). The analysis was settled with a BW of 20, monitoring the Em wavelength in range comprised between 520 and 535 nm for probe 14 and 520 and 580 nm for probe 13. The Ex was fixed at 420 nm for probe 14 and 440 nm for probe 13. The test was performed in quadruplicate with all the three isoenzymes. The recipe of the buffer reaction was the same as described before.

ALDH1A2 = molecular target: T2, ALDH1A2 (Homo sapiens, UniProt O94788); details: probe fixed at 10 μM, isoenzyme 100 μM to 1 μM
T2 construct: His-tag; made in house; host or cells: bacterial cells
T2 sequence (O94788 1-518): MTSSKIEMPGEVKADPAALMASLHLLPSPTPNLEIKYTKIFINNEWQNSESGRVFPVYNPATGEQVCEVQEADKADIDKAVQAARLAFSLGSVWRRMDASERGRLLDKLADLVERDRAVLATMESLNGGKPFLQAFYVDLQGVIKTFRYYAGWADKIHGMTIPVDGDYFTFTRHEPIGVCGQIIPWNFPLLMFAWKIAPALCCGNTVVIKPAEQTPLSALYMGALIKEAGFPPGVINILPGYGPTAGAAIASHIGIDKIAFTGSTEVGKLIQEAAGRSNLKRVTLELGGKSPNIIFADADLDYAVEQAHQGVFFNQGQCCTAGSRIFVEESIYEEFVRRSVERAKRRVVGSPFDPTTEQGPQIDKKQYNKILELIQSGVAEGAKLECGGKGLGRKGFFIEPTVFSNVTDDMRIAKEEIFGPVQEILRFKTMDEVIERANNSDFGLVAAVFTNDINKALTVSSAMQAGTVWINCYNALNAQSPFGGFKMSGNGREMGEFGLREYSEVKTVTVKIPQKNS
Description: as §1, §2

ALDH1A3 = molecular target: T3, ALDH1A3 (Homo sapiens, UniProt P47895); details: ALDH1A3; probe fixed at 10 μM, isoenzyme 100 μM to 1 μM; read-out: KD
T3 construct: His-tag; made in house; host or cells: bacterial cells
T3 sequence (P47895 1-512): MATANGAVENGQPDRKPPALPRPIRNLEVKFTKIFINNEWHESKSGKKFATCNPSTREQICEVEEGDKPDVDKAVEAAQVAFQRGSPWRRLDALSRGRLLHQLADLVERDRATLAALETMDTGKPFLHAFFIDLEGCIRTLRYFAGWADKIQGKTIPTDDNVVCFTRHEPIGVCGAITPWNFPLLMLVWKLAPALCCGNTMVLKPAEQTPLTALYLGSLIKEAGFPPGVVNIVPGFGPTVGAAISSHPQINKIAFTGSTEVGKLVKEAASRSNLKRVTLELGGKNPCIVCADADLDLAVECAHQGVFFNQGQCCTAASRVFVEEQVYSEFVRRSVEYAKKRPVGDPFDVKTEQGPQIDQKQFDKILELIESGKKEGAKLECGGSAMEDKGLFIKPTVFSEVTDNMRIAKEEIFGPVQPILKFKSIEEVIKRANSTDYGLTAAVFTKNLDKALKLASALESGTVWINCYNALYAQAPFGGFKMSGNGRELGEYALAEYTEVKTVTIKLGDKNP
Description: as §1, §2

| pKd (ALDH1A1) | pKd (ALDH1A2) | pKd (ALDH1A3) | SMILES |
| --- | --- | --- | --- |
| 4.37 | 3.90 | 4.07 | CCOC(=O)Cn1cc(COc2ccc(/C=C/C(O)=C/C(=O)/C=C/c3ccc(O)c(OC)c3)cc2OC)nn1 [Compound 14] |
| 4.51 | 4.43 | 4.42 | COc1cc(/C=C/C(=O)/C=C(O)/C=C/c2ccc(OCc3cn(CCOc4ccc(C=O)cc4)nn3)c(OC)c2)ccc1O [Compound 13] |
